Assay [1] deals with FADD−/− Jurkat cells. As to the kind of experiment: Necroptosis inhibition assay, TNF-α-induced necroptosis (CellTiter-Glo 2.0). Format: cell-based, human. Conditions: TNF-α 15 ng/mL; for Necroptosis inhibition assay (Rescue %) 10 μM: compound 10 μM; for Necroptosis inhibition assay (Rescue %) 1 μM: compound 1 μM. Summed up:
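FADD−/− Jurkat cells preincubated 30 min at room temperature with compound at 0.1, 1 and 10 μM final, then stimulated with TNF-α (15 ng/mL final) for 20–24 h at 37 °C, 5% CO2. Viability read as ATP luminescence; cytotoxicity and necroptosis inhibition rate calculated from luminescence values.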
For orientation: Cellular ATP, detected with luciferase, serves as a proxy for viable cell number.

Assay [2] has as its target T1, MLKL (Homo sapiens, UniProt Q8NB16).
T1 sequence (Q8NB16 1-471): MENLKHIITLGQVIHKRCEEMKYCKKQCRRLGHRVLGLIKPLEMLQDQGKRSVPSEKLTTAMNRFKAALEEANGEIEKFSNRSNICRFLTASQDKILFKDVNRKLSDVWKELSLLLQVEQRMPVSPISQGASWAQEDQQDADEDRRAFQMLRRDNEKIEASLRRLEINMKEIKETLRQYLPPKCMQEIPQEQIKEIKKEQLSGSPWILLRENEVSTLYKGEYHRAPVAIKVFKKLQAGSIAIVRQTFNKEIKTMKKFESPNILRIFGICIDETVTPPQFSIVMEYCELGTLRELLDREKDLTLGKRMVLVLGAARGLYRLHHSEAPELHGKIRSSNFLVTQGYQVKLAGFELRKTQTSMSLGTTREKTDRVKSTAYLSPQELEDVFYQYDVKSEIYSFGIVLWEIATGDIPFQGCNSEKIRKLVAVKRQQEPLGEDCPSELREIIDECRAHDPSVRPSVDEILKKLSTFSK
The experiment in a line: MLKL degradation assay in HepG2 cell line (western blot). It is filed as cell-based. Further details: endogenous in cells; host or cells: HepG2 or HaCaT. Conditions: cell line not given; for Degradation assay (Degradation %) 1 μM: compound 1 μM; for Degradation assay (Degradation %) 10 μM: compound 10 μM. Summed up:
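HepG2 cells were treated 20-24 h at 37 °C with compound at 1 or 10 μM final. RIPA lysates were normalized by BCA, and 10-15 μg protein per lane was resolved by SDS-PAGE. MLKL was detected by western blot with chemiluminescence.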

For assay [3], the target named is T1, MLKL. As to the kind of experiment: Measurement of binding affinity with MLKL receptor (competitive binding assay, Kd). Also noted: made in house; host or cells: HEK 293 cell line (T7 phage in E. coli BL21-derived host is also described). In a few lines: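 Competitive displacement of MLKL, expressed in HEK 293 cells and DNA-tagged for qPCR, from immobilized ligand on biotin-blocked beads. Compounds were added from 111× DMSO stocks (final DMSO 0.9%). Kinase left in the eluates was quantified by qPCR to give Kd.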

For the compound `Nc1ncc(-c2cnn(C3CCN(CCOC4CCN(C(=O)COc5ccc6c(c5)C(=O)N(C5CCC(=O)NC5=O)C6=O)CC4)CC3)c2)nc1C(=O)O[C@@H](C(=O)Nc1ccc(F)cc1)c1ccccc1` (stereo partly drawn) [TDH-332, (R)-2-((4-fluorophenyl)amino)-2-oxo-1-phenylethyl 3-amino-6-(1-(1-(2-((1-(2-((2-(2,6-dioxopiperidin-3-yl)-1,3-dioxoisoindolin-5-yl)oxy)acetyl)piperidin-4-yl)oxy)ethyl)piperidin-4-yl)-1H-pyrazol-4-yl)pyrazine-2-carboxylate], the “Necroptosis inhibition assay (Rescue %) 1.1 μM” value in assay [1] (compound 1.1 µM) is recorded as 68.62 (1.1 µM) %. Moreover, the “Necroptosis inhibition assay (Rescue %) 10 μM” value in assay [1] was determined as 37.17%. Moreover, in assay [2], the “Degradation assay (Degradation %) 1 μM” value was determined as 61.62% and the “Degradation assay (Degradation %) 10 μM” value is reported as 63.17%. In assay [3], this compound showed a Kd of 2.6 nM.
For the compound `Nc1ncc(-c2cnn(C3CCN(CCOC4CCN(C(=O)CCc5cccc6c5C(=O)N(C5CCC(=O)NC5=O)C6=O)CC4)CC3)c2)nc1C(=O)O[C@@H](C(=O)Nc1ccc(F)cc1)c1ccccc1` (stereo partly drawn) [TDH-378, (R)-2-((4-fluorophenyl)amino)-2-oxo-1-phenylethyl 3-amino-6-(1-(1-(2-((1-(3-(2-(2,6-dioxopiperidin-3-yl)-1,3-dioxoisoindolin-4-yl)propanoyl)piperidin-4-yl)oxy)ethyl)piperidin-4-yl)-1H-pyrazol-4-yl)pyrazine-2-carboxylate], in assay [1], the “Necroptosis inhibition assay (Rescue %) 1 μM” value is 49.61% and the “Necroptosis inhibition assay (Rescue %) 10 μM” value came out at 28.89%. Moreover, in assay [2], the “Degradation assay (Degradation %) 1 μM” value is on record as 88.62% and the “Degradation assay (Degradation %) 10 μM” value came out at 80.01%. Further, in assay [3], the Kd stood at 2 nM.
For the compound `Nc1ncc(-c2cnn(C3CCN(C(=O)c4cn(C5CCN(c6cccc7c6C(=O)N(C6CCC(=O)NC6=O)C7=O)CC5)cn4)CC3)c2)nc1C(=O)O[C@@H](C(=O)Nc1ccc(F)cc1)c1ccccc1` (stereo partly drawn) [TDH-364, (R)-2-((4-fluorophenyl)amino)-2-oxo-1-phenylethyl 3-amino-6-(1-(1-(1-(1-(2-(2,6-dioxopiperidin-3-yl)-1,3-dioxoisoindolin-4-yl)piperidin-4-yl)-1H-imidazole-4-carbonyl)piperidin-4-yl)-1H-pyrazol-4-yl)pyrazine-2-carboxylate], in assay [1], the “Necroptosis inhibition assay (Rescue %) 1 μM” value is 22.41% and the “Necroptosis inhibition assay (Rescue %) 10 μM” value was 17.66%. In assay [2], the “Degradation assay (Degradation %) 1 μM” value is 72.07% and the “Degradation assay (Degradation %) 10 μM” value was 65.89%. In assay [3], this compound yielded a Kd of 5.3 nM.
For the compound `Nc1ncc(-c2cnn(C3CCN(C(=O)CCC4CCN(C(=O)COc5cccc6c5C(=O)N(C5CCC(=O)NC5=O)C6=O)CC4)CC3)c2)nc1C(=O)O[C@@H](C(=O)Nc1ccc(F)cc1)c1ccccc1` (stereo partly drawn) [TDH-415, (R)-2-((4-fluorophenyl)amino)-2-oxo-1-phenylethyl 3-amino-6-(1-(1-(3-(1-(2-((2-(2,6-dioxopiperidin-3-yl)-1,3-dioxoisoindolin-4-yl)oxy)acetyl)piperidin-4-yl)propanoyl)piperidin-4-yl)-1H-pyrazol-4-yl)pyrazine-2-carboxylate], in assay [1] (FADD−/− Jurkat cells), the “Necroptosis inhibition assay (Rescue %) 1 μM” value amounted to 41.74% and the “Necroptosis inhibition assay (Rescue %) 10 μM” value was 40.81%. In assay [2], the “Degradation assay (Degradation %) 1 μM” value is given as 89.91% and the “Degradation assay (Degradation %) 10 μM” value amounted to 90.14%. Further, the affinity in assay [3], expressed as Kd, was 1.7 nM.
In the case of `Nc1ncc(-c2cnn(C3CCN(CCC4CCN(C(=O)CNc5cccc6c5C(=O)N(C5CCC(=O)NC5=O)C6=O)CC4)CC3)c2)cc1C(=O)OC(C(=O)Nc1ccc(F)cc1)c1ccccc1` (stereo not shown) [TDH-303, 2-((4-fluorophenyl)amino)-2-oxo-1-phenylethyl 2-amino-5-(1-(1-(2-(1-((2-(2,6-dioxopiperidin-3-yl)-1,3-dioxoisoindolin-4-yl)glycyl)piperidin-4-yl)ethyl)piperidin-4-yl)-1H-pyrazol-4-yl)nicotinate], in assay [1], the “Necroptosis inhibition assay (Rescue %) 1 μM” value amounted to 10.34% and the “Necroptosis inhibition assay (Rescue %) 10 μM” value amounted to 17.69%. Further, in assay [2], the “Degradation assay (Degradation %) 1 μM” value turned out to be 82.82% and the “Degradation assay (Degradation %) 10 μM” value was determined as 82.05%. Besides, in assay [3], the affinity, expressed as Kd, was 13 nM.
In the same order, the values of `Nc1ncc(-c2cnn(C3CCN(CCOCCNc4ccc5c(c4)C(=O)N(C4CCC(=O)NC4=O)C5=O)CC3)c2)nc1C(=O)O[C@@H](C(=O)Nc1ccc(F)cc1)c1ccccc1` (stereo partly drawn) [TDH-131, (R)-2-((4-fluorophenyl)amino)-2-oxo-1-phenylethyl 3-amino-6-(1-(1-(2-(2-((2-(2,6-dioxopiperidin-3-yl)-1,3-dioxoisoindolin-5-yl)amino)ethoxy)ethyl)piperidin-4-yl)-1H-pyrazol-4-yl)pyrazine-2-carboxylate] are 24.56%, 0.96%, 51.13%, 47.86% and 3.9 nM.
`Nc1ncc(-c2cnn(C3CCN(C4CC5(CCN(CC6CCN(C(=O)c7ccc8c(N9CCC(=O)NC9=O)coc8c7)CC6)CC5)C4)CC3)c2)nc1C(=O)O[C@@H](C(=O)Nc1ccc(F)cc1)c1ccccc1` [TDH-553, (R)-2-((4-fluorophenyl)amino)-2-oxo-1-phenylethyl 3-amino-6-(1-(1-(7-((1-(3-(2,4-dioxotetrahydropyrimidin-1(2H)-yl)benzofuran-6-carbonyl)piperidin-4-yl)methyl)-7-azaspiro[3.5]nonan-2-yl)piperidin-4-yl)-1H-pyrazol-4-yl)pyrazine-2-carboxylate]: in assay [1] (FADD−/− Jurkat cells), the “Necroptosis inhibition assay (Rescue %) 1 μM” value is 58.63% and the “Necroptosis inhibition assay (Rescue %) 10 μM” value is −20.56%. Besides, in assay [2], the “Degradation assay (Degradation %) 1 μM” value is given as 84.21% and the “Degradation assay (Degradation %) 10 μM” value was 91.57%. Further, the Kd in assay [3] stood at 0.31 nM.
For the compound `Nc1ncc(-c2cnn(C3CCN(CCCN4CCN(CC5CCN(C(=O)CNc6ccc7c(c6)C(=O)N(C6CCC(=O)NC6=O)C7=O)CC5)CC4)CC3)c2)nc1C(=O)O[C@@H](C(=O)Nc1ccc(F)cc1)c1ccccc1` (stereo partly drawn) [TDH-441, (R)-2-((4-fluorophenyl)amino)-2-oxo-1-phenylethyl 3-amino-6-(1-(1-(3-(4-((1-((2-(2,6-dioxopiperidin-3-yl)-1,3-dioxoisoindolin-5-yl)glycyl)piperidin-4-yl)methyl)piperazin-1-yl)propyl)piperidin-4-yl)-1H-pyrazol-4-yl)pyrazine-2-carboxylate], in assay [1] (FADD−/− Jurkat cells), the “Necroptosis inhibition assay (Rescue %) 1 μM” value amounted to 71.58% and the “Necroptosis inhibition assay (Rescue %) 10 μM” value is recorded as −15.73%. Further, in assay [2], the “Degradation assay (Degradation %) 1 μM” value stood at 87.59% and the “Degradation assay (Degradation %) 10 μM” value is 87.7%. The compound also returned a Kd in assay [3] of 0.69 nM.
Take `Nc1ncc(-c2cnn([C@@H]3CCN(CCOCCOCCNC(=O)COc4cccc5c4C(=O)N(C4CCC(=O)NC4=O)C5=O)C3)c2)nc1C(=O)OC(C(=O)Nc1ccc(F)cc1)c1ccccc1` (stereo partly drawn) [TDH-269, 2-((4-fluorophenyl)amino)-2-oxo-1-phenylethyl 3-amino-6-(1-((3R)-1-(2-(2-(2-(2-((2-(2,6-dioxopiperidin-3-yl)-1,3-dioxoisoindolin-4-yl)oxy)acetamido)ethoxy)ethoxy)ethyl)pyrrolidin-3-yl)-1H-pyrazol-4-yl)pyrazine-2-carboxylate]: in assay [1], the “Necroptosis inhibition assay (Rescue %) 1 μM” value worked out at 35.71% and the “Necroptosis inhibition assay (Rescue %) 10 μM” value amounted to 81.5%. Further, the “Degradation assay (Degradation %) 10 μM” value in assay [2] is on record as 12.14%. Moreover, in assay [3], the Kd came out at 5.4 nM.
`Nc1ncc(-c2cnn(C3CCN(CCC4CCN(C(=O)CCc5ccc6c(c5)CN(C5CCC(=O)NC5=O)C6=O)CC4)CC3)c2)nc1C(=O)O[C@@H](C(=O)Nc1ccc(F)cc1)c1ccccc1` (stereo partly drawn) [TDH-475, (R)-2-((4-fluorophenyl)amino)-2-oxo-1-phenylethyl 3-amino-6-(1-(1-(2-(1-(3-(2-(2,6-dioxopiperidin-3-yl)-1-oxoisoindolin-5-yl)propanoyl)piperidin-4-yl)ethyl)piperidin-4-yl)-1H-pyrazol-4-yl)pyrazine-2-carboxylate]: in assay [1] (FADD−/− Jurkat cells), the “Necroptosis inhibition assay (Rescue %) 1 μM” value was found to be 31.75% and the “Necroptosis inhibition assay (Rescue %) 10 μM” value is reported as 7.21%. Further, in assay [2], the “Degradation assay (Degradation %) 1 μM” value is listed as 81.77% and the “Degradation assay (Degradation %) 10 μM” value amounted to 60.49%. The compound also displayed a Kd in assay [3] of 0.34 nM.

Usually Kd stands for a measure of binding affinity in units of concentration. A higher Kd goes with weaker binding.
